Test [1] has as its system NMDAR overactivation seizures in CD1 mice. Description: NMDA-induced seizures (1 nmol NMDA icv). The test is classed as in vivo, mouse. The following applies: for effect on behavioral signs evoked by NMDA: 8 mice. As for the experimental part:
Figure 1 ^αN-acetyl β-End 1–31 reduced ischemic brain damage and diminished seizures induced by NMDAR overactivation. Implication of σ1Rs. (A) ^αN-acetyl β-End 1–31 administration diminished ischemic brain damage in wild-type but not σ1R^−/− mice. Upper panel: representative 2,3,5-triphenyltetrazolium chloride (TTC)-stained brain section images obtained from saline- and drug-treated mice (3 nmol, 1 h after surgery) 48 h after pMCAO. White indicates infarction; red staining indicates normal tissue. Lower panel: the bar graphs quantitatively compare the infarct volume based on TTC staining from wild-type mice treated with saline, β-End 1–31 and the σ1R agonist PRE084 (white bars). The reducing effect of ^αN-acetyl β-End 1–31 was counteracted by β-End 1–31 and PRE084 (gray bars). In σ1R^−/− mice, the positive effect of ^αN-acetyl β-End 1–31 was not observed. […] Effects of PPCC, β-End 1–31 and ^αN-acetyl β-End 1–31 on seizures induced by NMDA in wild-type and σ1R^−/− mice. The mice received icv 1 nmol of the NMDAR agonist NMDA 30 min after the other drugs (3 nmol) and were then immediately evaluated. […] ANOVA followed by the Holm–Sidak multiple comparisons test, p < 0.05, 1-β > 0.80.
Seizures were induced by injection of NMDA (1 nmol/mouse icv, in a volume of 4 μL sterile saline) as described by others. […] The seizure activity consisted of a mild myoclonic phase (immobility, mouth and facial movements, tail extension, circling), rearing (violent movements of the whole body, rearing), wild running (episodes of running with explosive jumps), clonic convulsions (characterized by rigidity of the whole body, including limb flexion/extension), followed by continuous/repetitive seizure activity (tonic seizures) and, in approximately 15–20% of the animals, death. The episode typically began a few seconds after injection and evolved to its maximal intensity in less than 1 min.

The subject of another test is CCI CD1 mice. In words: Chronic sciatic nerve constriction injury (CCI), mechanical allodynia, von Frey test. In kind it is in vivo, mouse. As for the experimental part:
Implication of σ1Rs. […] Upper panel: the withdrawal thresholds of the contralateral and ipsilateral paws were measured before (indicated as 0) and up to 14 days after surgery. […] Middle panel: 0.3 and 3 nmol of ^αN-acetyl β-End 1–31 were administered icv 7 days after surgery, and the nociceptive threshold was evaluated at the indicated postinjection intervals (in minutes). For every time interval studied in min or days, * indicates a significant difference from the group that received saline instead of ^αN-acetyl β-End 1–31; ϕ significant difference from the effect of 3 nmol ^αN-acetyl β-End 1–31. […] All data are presented as the mean ± SD of six mice. ANOVA followed by the Holm–Sidak multiple comparisons test, p < 0.05, 1-β > 0.80. […] Upper panel: wild-type mice were injected icv with saline, ^αN-acetyl β-End 1–31 (1 nmol/mouse) or the combination of the σ1R agonist PPCC (3 nmol/mouse) plus ^αN-acetyl β-End 1–31 20 min before morphine and β-End 1–31. Analgesia was evaluated by the warm water (52 °C) tail-flick test at the interval postinjection corresponding to their peak effect, 30 min. Lower panel: σ1R^−/− mice received 1 nmol ^αN-acetyl β-End 1–31, 20 min before morphine and β-End 1–31 and analgesia was evaluated as described above. Eight mice were used per strain and treatment. * Significant difference with respect to the group treated with morphine or β-End 1–31 alone. ANOVA followed by the Holm–Sidak multiple comparisons test, p < 0.05, 1-β > 0.80.
After the basal mechanical sensitivity of the mice was tested, neuropathic pain was induced by chronic sciatic nerve constriction injury (CCI) surgery under isoflurane/oxygen anesthesia using the procedure described by Bennett and Xie with modifications. Briefly, a 0.5 cm incision was made in the right midthigh, the biceps femoris muscle was separated, and the sciatic nerve was exposed proximal to its trifurcation. Two ligatures (5/0 braided silk suture; Lorca Marin, Murcia, Spain, 70,014) were tied around this nerve approximately 1 mm apart until a short flick of the ipsilateral hind limb was observed. The incision was then closed in layers with a 4–0 Ethicon silk suture. The same procedure was used for sham surgery, except that the sciatic nerve was exposed but not ligated. The tactile pain threshold of both the ipsilateral and contralateral hind paws was then assessed before and on different days post-surgery. The mice were individually placed in a transparent plastic cage with a wire-mesh bottom that allowed full access to the paws. After a habituation period of 20 min, a mechanical stimulus was delivered to the plantar surface from below the floor of the test chamber to measure allodynia using an automatic von Frey apparatus (Ugo Basile #37,450, Comerio, Italy). A steel rod (0.5 mm diameter) was pushed against the hind paw over a 10 s period as the force increased from 0 to 10 g. When the mouse withdrew its hind paw, the mechanical stimulus was automatically stopped, and the force at which withdrawal occurred was recorded. At each time point, three separate threshold measurements were obtained from each hind paw and then averaged.

For a further test, the target named is T1, σ1R oligomers (Mus musculus, UniProt O55242).
T1 construct: The coding region of the full-length murine σ1R (AF004927); GST (N); made in house; host or cells: E. coli BL21 (KRX)
T1 sequence (O55242 whole entry): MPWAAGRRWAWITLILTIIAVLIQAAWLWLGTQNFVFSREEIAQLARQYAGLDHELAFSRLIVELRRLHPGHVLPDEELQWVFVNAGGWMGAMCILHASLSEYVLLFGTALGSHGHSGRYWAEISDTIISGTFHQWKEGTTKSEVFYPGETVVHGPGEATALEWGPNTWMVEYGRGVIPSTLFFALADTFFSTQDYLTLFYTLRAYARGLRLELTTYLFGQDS
In words: In vitro made σ1R oligomers on agarose-σ1R. The test is classed as biochemical, murine. The following applies: agarose-σ1R plus free σ1Rs (100 nM), Tris-HCl pH 7.4, 0.2% CHAPS, 2.5 mM CaCl2. Here is the method: In ex vivo fishing assays performed on mouse solubilized brain membranes enriched in synaptosomes (SBM), our bait, agarose-covalently attached σ1Rs (agarose-σ1R), captured diverse prey, such as trimeric G proteins, σ1Rs and σ2Rs (Figure 4C). Because σ1Rs form oligomers in vivo that can be altered by ligands, we added in vitro free σ1Rs to agarose-σ1Rs. After removing the unbound σ1Rs, the extent of the σ1R oligomerization that remained around the agarose-σ1R was determined by SDS-PAGE followed by Western blot analysis (Figure S3).
Figure S4. In vitro made σ1R oligomers. A) Effect of σ1R ligands on the formation of σ1R oligomers.
Agarose (Θ)-attached σ1Rs were incubated for 30 min in the presence of recombinant free σ1Rs (100 nM) in 300 μL of 50 mM Tris-HCl (pH 7.4), 0.2% CHAPS, and 2.5 mM CaCl2. After removing unbound σ1R proteins, the assays were performed in the absence (control) or presence of increasing concentrations of σ1R ligands. The agarose-bound σ1R protein complexes were obtained by centrifugation, washed three times, solubilized in 2x Laemmli buffer containing β-mercaptoethanol, resolved by SDS-PAGE, and analyzed by Western blotting (for more details see Methods). […] The G proteins that remained bound to Θ-σ1R oligomers were determined as in Figure 4C. The arrows indicate an estimated afﬁnity of the ligand for σ1Rs, as determined through in vitro assays. […]

Setting [2] is: 3 nmol icv 30 min before 1 nmol NMDA icv, wild-type mice.

Take “^αN-acetyl β-End 1–31: β-End 1–31 acetylated at N terminal Y1, α position”: in test [1] (setting [2]), the “effect on clonic convulsions and tonic seizures” value is “only a tendency to diminish clonic convulsions and tonic seizures”; the “effect on behavioral signs evoked by NMDA” value is “partially protected the mice from hypermobility and convulsive rearing”. For the same molecule, the “anticonvulsant effects in σ1R−/− mice” value in test [1] (σ1R−/− mice, 3 nmol icv) is recorded as “absent”. Besides, the “effect on mechanical allodynia, 0.3 nmol” value in the test with CCI CD1 mice (0.3 nmol icv 7 days after CCI surgery, von Frey, 6 mice) is on record as “significantly reduced mechanical allodynia”. In addition, the “effect on mechanical allodynia, 3 nmol” value in the test on CCI CD1 mice (3 nmol icv 7 days after CCI surgery, von Frey, 6 mice) is “practically restored the von Frey response to the levels observed presurgery”. In addition, in the test with CCI CD1 mice (higher dose (3 nmol icv), partial protection for an additional 24 h), the “duration of clear protection” value was 24 h. The “time after icv administration at which the beneficial effect was observed” value in the test with CCI CD1 mice (icv, 7 days after CCI surgery) was in the range of 10 to 15 min. The “effect on in vitro made σ1R oligomers” value with σ1R oligomers is “released σ1Rs from these oligomers”.

Turning to `COC(=O)[C@]1(c2ccc(C)cc2)C[C@@H]1CN1CCC(O)(c2ccccc2)CC1` [PPCC, (1R,2S/1S,2R)-2-[4-hydroxy-4-phenylpiperidin-1-yl)methyl]-1-(4-methylphenyl) cyclopropanecarboxylate, reference compound], the “effect on behavioral signs evoked by NMDA” value in test [1] (setting [2]) is recorded as “did not significantly alter the behavioral effects”. Further, the “effect on the anticonvulsant action of ^αN-acetyl β-End 1–31” value in test [1] (3 nmol icv with ^αN-acetyl β-End 1–31, wild-type mice) is recorded as “prevented ^αN-acetyl β-End 1–31 from alleviating these signs”.

Turning to “KKGE [β-End 28–31, C-terminal tetrapeptide of β-End 1–31]”, at σ1R oligomers, the “effect on in vitro made σ1R oligomers” value is reported as “released σ1Rs from these oligomers”.

For `Cl.O=C(OCCN1CCOCC1)C1(c2ccccc2)CCCCC1` [PRE084, 2-(4-morpholinethyl)-1-phenylcyclohexanecarboxylate hydrochloride, reference compound], the “effect on the antiallodynic action of ^αN-acetyl β-End 1–31” value in the test with CCI CD1 mice (3 nmol icv together with 3 nmol ^αN-acetyl β-End 1–31) was “prevented the β-End 1–31 ^αN-acetyl derivative from diminishing the response of CCI mice in the von Frey test”.

(Values after paper PMC9820303, “^αN-Acetyl β-Endorphin Is an Endogenous Ligand of σ1Rs That Regulates Mu-Opioid Receptor Signaling by Exchanging G Proteins for σ2Rs in σ1R Oligomers” (International Journal of Molecular Sciences, 2022).)
